Measurements reported in patent US11912723B2, “KRAS modulators and uses thereof” (Quanta Therapeutics, Inc., priority 2022, dated 2024).

Key:
[1] = target: T1, GST-tagged KRAS G12D (2-169) (Homo sapiens, UniProt P01116, G12D); assay: Nucleotide exchange assay (NEA), HTRF of SOS-mediated GTP-DY-647P1 binding; assay type: biochemical; conditions: 5 nM GST-KRAS G12D, 20 nM SOScat, 150 nM GTP; compound 1 h at RT
T1 construct: GST-tagged KRAS^G12D (2-169, Reaction Biology, MSC-11-539); purchased Reaction Biology MSC-11-539 (KRAS G12D); MSC-11-502 (SOS1cat)
Summary of the method: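 After 1 h RT preincubation of compound with KRAS, SOS1cat (20 nM final) and fluorescent GTP analog (150 nM) were added to 5 nM KRAS; HTRF (anti-GST Tb donor) followed at RT for up to 90 min. % inhibition relative to DMSO and no-SOS1 blank, 4-parameter curve fit.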

KRAS G12D/RAF1 = target: T2, KRAS G12D/RAF1 (Homo sapiens, UniProt P01116, G12D); assay: Protein-protein interaction (PPI) HTRF assay KRAS G12D/RAF1; assay type: binding; conditions: KRAS G12D/RAF1, GppNHp-loaded KRAS; 30 minutes pre-incubation
T2 construct: KRAS (1-169) proteins were expressed in E. coli at 18° C; His6-MBP (N, cleaved yes); made in house; host or cells: E. coli
Summary of the method: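 IC50 values come from the 665/615 HTRF ratio, scaled between no-compound (0% inhibition) and untagged RAF1 (100%). GppNHp-exchanged, biotinylated RAS (1-169) solution at 16 nM met compound for 30 min at room temperature. Then 16 nM His-tagged RAF1 (52-131) donor solution was added and incubated 1 h.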

T1 sequence (P01116 2-169 isoform P01116-2 G12D): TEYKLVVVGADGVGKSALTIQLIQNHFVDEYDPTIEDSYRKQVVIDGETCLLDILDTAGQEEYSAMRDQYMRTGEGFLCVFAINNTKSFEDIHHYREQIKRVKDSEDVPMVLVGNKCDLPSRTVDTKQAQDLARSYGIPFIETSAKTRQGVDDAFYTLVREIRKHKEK
T2 sequence (P01116 1-169 isoform P01116-2 G12D): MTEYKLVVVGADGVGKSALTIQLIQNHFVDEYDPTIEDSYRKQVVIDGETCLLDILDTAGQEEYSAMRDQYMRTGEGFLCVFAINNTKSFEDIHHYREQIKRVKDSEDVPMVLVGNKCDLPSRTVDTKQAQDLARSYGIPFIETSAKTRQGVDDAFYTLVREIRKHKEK

Structure (SMILES) | IC50 [1] | IC50 (KRAS G12D/RAF1)
CN(C)C(=O)c1nn2c(c1Cl)CN(c1nc(OC[C@@]34CCCN3C[C@H](F)C4)nc3c1CN(C)[C@@]1(CCc4c(F)cccc41)C3)CCC2 [Compound 65, 3-chloro-5-[(7S)-4′-fluoro-2-[[(2R,8S)-2-fluoro-1,2,3,5,6,7-hexahydropyrrolizin-8-yl]methoxy]-6-methyl-spiro[5,8-dihydropyrido[4,3-d]pyrimidine-7,1′-indane]-4-yl]-N,N-dimethyl-4,6,7,8-tetrahydropyrazolo[1,5-a][1,4]diazepine-2-carboxamide] | < 0.01 µM | 10 to 100 µM
CN(C)C(=O)c1nn2c(c1Cl)CN(c1nc(OC[C@@]34CCCN3C[C@H](F)C4)nc3c1CN(C)[C@@]1(CCc4cccc(Cl)c41)C3)CCC2 [Compound 69, 3-chloro-5-[(7S)-7′-chloro-2-[[(2R,8S)-2-fluoro-1,2,3,5,6,7-hexahydropyrrolizin-8-yl]methoxy]-6-methyl-spiro[5,8-dihydropyrido[4,3-d]pyrimidine-7,1′-indane]-4-yl]-N,N-dimethyl-4,6,7,8-tetrahydropyrazolo[1,5-a][1,4]diazepine-2-carboxamide] | < 0.01 µM | 10 to 100 µM
CN(C)C(=O)c1cc2n(n1)CCCN(c1nc(OC[C@@]34CCCN3C[C@H](F)C4)nc3c1CN(C)[C@@]1(CCCc4ccccc41)C3)C2 [Compound 72, 5-[(7S)-2-[[(2R,8S)-2-fluoro-1,2,3,5,6,7-hexahydropyrrolizin-8-yl]methoxy]-6-methyl-spiro[5,8-dihydropyrido[4,3-d]pyrimidine-7,1′-tetralin]-4-yl]-N,N-dimethyl-4,6,7,8-tetrahydropyrazolo[1,5-a][1,4]diazepine-2-carboxamide] | < 0.01 µM | 10 to 100 µM
CN1Cc2c(nc(OC[C@@]34CCCN3C[C@H](F)C4)nc2N2CCCn3nc(N)c(Cl)c3C2)C[C@]12CCCc1ccccc12 [Compound 79, 3-chloro-5-[(7S)-2-[[(2R,8S)-2-fluoro-1,2,3,5,6,7-hexahydropyrrolizin-8-yl]methoxy]-6-methyl-spiro[5,8-dihydropyrido[4,3-d]pyrimidine-7,1′-tetralin]-4-yl]-4,6,7,8-tetrahydropyrazolo[1,5-a][1,4]diazepin-2-amine] | < 0.01 µM | > 100 µM
C#Cc1c(C(=O)N(C)C)nn2c1CN(c1nc(OC[C@@]34CCCN3C[C@H](F)C4)nc3c1CN(C)[C@@]1(CCCc4ccccc41)C3)CCC2 [Compound 81, 3-ethynyl-5-[(7S)-2-[[(2R,8S)-2-fluoro-1,2,3,5,6,7-hexahydropyrrolizin-8-yl]methoxy]-6-methyl-spiro[5,8-dihydropyrido[4,3-d]pyrimidine-7,1′-tetralin]-4-yl]-N,N-dimethyl-4,6,7,8-tetrahydropyrazolo[1,5-a][1,4]diazepine-2-carboxamide] | < 0.01 µM | 10 to 100 µM
CN1Cc2c(nc(OC[C@@]34CCCN3C[C@H](F)C4)nc2N2C[C@H]3CC[C@@H](C2)N3)C[C@]12CCCc1ccccc12 [Compound 84, (7S)-4-[(1R,5S)-3,8-diazabicyclo[3.2.1]octan-3-yl]-2-[[(2R,8S)-2-fluoro-1,2,3,5,6,7-hexahydropyrrolizin-8-yl]methoxy]-6-methyl-spiro[5,8-dihydropyrido[4,3-d]pyrimidine-7,1′-tetralin]] | < 0.01 µM | > 100 µM
Cc1nc(-c2nn3c(c2Cl)CN(c2nc(OC[C@@]45CCCN4C[C@H](F)C5)nc4c2CN(C)[C@@]2(CCCc5ccccc52)C4)CCC3)no1 [Compound 87, 3-[3-chloro-5-[(7S)-2-[[(2R,8S)-2-fluoro-1,2,3,5,6,7-hexahydropyrrolizin-8-yl]methoxy]-6-methyl-spiro[5,8-dihydropyrido[4,3-d]pyrimidine-7,1′-tetralin]-4-yl]-4,6,7,8-tetrahydropyrazolo[1,5-a][1,4]diazepin-2-yl]-5-methyl-1,2,4-oxadiazole] | < 0.01 µM | 10 to 100 µM
Cc1nnc(-c2nn3c(c2Cl)CN(c2nc(OC[C@@]45CCCN4C[C@H](F)C5)nc4c2CN(C)[C@@]2(CCCc5ccccc52)C4)CCC3)n1C [Compound 90, (7S)-4-[3-chloro-2-(4,5-dimethyl-1,2,4-triazol-3-yl)-4,6,7,8-tetrahydropyrazolo[1,5-a][1,4]diazepin-5-yl]-2-[[(2R,8S)-2-fluoro-1,2,3,5,6,7-hexahydropyrrolizin-8-yl]methoxy]-6-methyl-spiro[5,8-dihydropyrido[4,3-d]pyrimidine-7,1′-tetralin]] | < 0.01 µM | 10 to 100 µM
CN(C)C(=O)c1nn2c(c1Cl)CN(c1nc(OC[C@@]34CCCN3C[C@H](F)C4)nc3c1CN(C)[C@@]1(CCc4cccc(O)c41)C3)CCC2 [Compound 96, 3-chloro-5-[(7S)-2-[[(2R,8S)-2-fluoro-1,2,3,5,6,7-hexahydropyrrolizin-8-yl]methoxy]-7′-hydroxy-6-methyl-spiro[5,8-dihydropyrido[4,3-d]pyrimidine-7,1′-indane]-4-yl]-N,N-dimethyl-4,6,7,8-tetrahydropyrazolo[1,5-a][1,4]diazepine-2-carboxamide] | < 0.01 µM | 10 to 100 µM
CN(C)CC1(COc2nc3c(c(N4CCCn5nc(C(=O)N(C)C)c(Cl)c5C4)n2)CN(C)[C@@]2(CCCc4ccccc42)C3)CC1(F)F (stereo partly drawn) [Compound 97, 3-chloro-5-[(7S)-2-[[1-[(dimethylamino)methyl]-2,2-difluoro-cyclopropyl]methoxy]-6-methyl-spiro[5,8-dihydropyrido[4,3-d]pyrimidine-7,1′-tetralin]-4-yl]-N,N-dimethyl-4,6,7,8-tetrahydropyrazolo[1,5-a][1,4]diazepine-2-carboxamide] | < 0.01 µM | > 100 µM
CN1Cc2c(nc(OC[C@@]34CCCN3C[C@H](F)C4)nc2N2CCCn3nc(-c4nnnn4C)c(Cl)c3C2)C[C@]12CCCc1ccccc12 [Compound 99, (7S)-4-[3-chloro-2-(1-methyltetrazol-5-yl)-4,6,7,8-tetrahydropyrazolo[1,5-a][1,4]diazepin-5-yl]-2-[[(2R,8S)-2-fluoro-1,2,3,5,6,7-hexahydropyrrolizin-8-yl]methoxy]-6-methyl-spiro[5,8-dihydropyrido[4,3-d]pyrimidine-7,1′-tetralin]] | < 0.01 µM | > 100 µM
